Experimental data published in article PMC7278776, “Multidrug Resistance Modulation Activity of Silybin Derivatives and Their Anti-Inflammatory Potential” (Antioxidants, 2020).
Marks after values point to notes of the source that are not given here.

Columns and labels:
ABCG4 = ABCG4 mRNA expression (real-time PCR); type: cell-based, human; conditions: A2780/DOX
Method: (§1) The A2780/DOX cell line was seeded into 5 cm Petri dishes with DMEM medium at 1 × 10^5 cell/mL. […] After 48 h of treatment, the cells were washed with PBS and harvested using the standard trypsin-EDTA procedure. The harvested cells were centrifuged (3200× g; 10 min, 4 °C). The supernatant was discarded, and the pellets were washed with 1.5 mL of cooled PBS (5400× g; 10 min, 4 °C). The washing step was repeated with 1 mL of PBS and the cells were centrifuged again (10,000× g; 3 min, 4 °C). Afterwards, the pellets were resuspended in 1 mL of Trizol (Invitrogen, Carlsbad, CA, USA) and transferred into pre-cooled RNase-free microfuge tubes. The samples were stored at −80 °C.
(§2) A Quant-iT RiboGreen RNA Assay Kit (Invitrogen) was used to determine the RNA concentration using the Infinite M200 plate reader (Tecan, Männedor, Switzerland). The cDNA was prepared from 0.5 µg of total RNA using a RevertAid First Strand Synthesis cDNA Kit (MBI Fermentas, Vilnius, Lithuania). The amplification of the ubiquitin C gene fragment was used to determine the quality of cDNA.
(§3) The experiment was performed using the ViiA7 Real-Time polymerase chain reaction (PCR) System (Life Technologies, Camarillo, CA, USA) with a 384-well block. Before quantitative real-time PCR, the master mix was prepared by mixing 2 µL of 8 × diluted cDNA, 1.75 µL of RNase free water, 1 µL of 5 × HotFIREPol Probe quantitative PCR Mix Plus (Solis Biodyne, Tartu, Estonia) and 0.25 µL of specific 20 × TaqMan Gene Expression Assay (Life Technologies), giving 5 µL of final reaction volume. Cycling parameters were: initial hold at 50 °C for 2 min and denaturation at 95 °C for 10 min, followed by 45 cycles consisting of denaturation at 95 °C for 15 s and annealing/extension at 60 °C for 1 min. After each extension phase, the fluorescence values were acquired. Duplicate samples were used for measurement and samples with a standard deviation of duplicates > 1.0 cycle threshold (Ct) were re-analyzed. The real time PCR procedure was maintained according to MIQE (Minimum information for publication of quantitative real-time PCR experiments) guidelines. The software REST 2009 (Qiagen, Hilden, Germany) served to compare relative transcript levels of genes in the cell line.

ABCC10 = ABCC10 mRNA expression (real-time PCR); type: cell-based, human; conditions: A2780/DOX
Method: as §1, §2, §3

TNF-α = TNF-α release by LPS-induced macrophages (ELISA); type: cell-based, mouse; conditions: for TNF-α (pg/mL): untreated LPS control 2954 ± 92
Method: To determine the level of inflammatory cytokine TNF-α, macrophages were pre-cultivated with the tested compounds (12.5–50 µM) for 24 h. Thereafter, the plates were washed with PBS and new MEM medium enriched with LPS (1 µg/mL) was added to the wells. After 2 h of incubation, the plates were centrifuged (1000× g; 10 min, 4 °C) and then the medium was removed and frozen to −80 °C. Prior to the detection, the samples were diluted in ELISA diluent in a 1:10 ratio. […]

ABCC1 (MRP1) = assay: ABCC1 mRNA expression (real-time PCR); type: cell-based, human; conditions: A2780/DOX
Method: (§4) The A2780/DOX cell line was seeded into 5 cm Petri dishes with DMEM medium at 1 × 10^5 cell/mL. After 24 h, the dishes were washed with PBS and new DMEM medium supplemented with doxorubicin (at concentration equal to IC25) and samples (10 µM) were added. After 48 h of treatment, the cells were washed with PBS and harvested using the standard trypsin-EDTA procedure. The harvested cells were centrifuged (3200× g; 10 min, 4 °C). The supernatant was discarded, and the pellets were washed with 1.5 mL of cooled PBS (5400× g; 10 min, 4 °C). The washing step was repeated with 1 mL of PBS and the cells were centrifuged again (10,000× g; 3 min, 4 °C). Afterwards, the pellets were resuspended in 1 mL of Trizol (Invitrogen, Carlsbad, CA, USA) and transferred into pre-cooled RNase-free microfuge tubes. The samples were stored at −80 °C.
as §2, §3

ABCD1 = ABCD1 mRNA expression (real-time PCR); type: cell-based, human; conditions: A2780/DOX, 10 µM combined with doxorubicin at IC25, 48 h
Method: as §4, §2, §3

[1] = ORAC (oxygen radical absorption capacity) assay; conditions: fluorescein/AAPH; read-out: ORAC, concentration necessary to halve the fluorescence response (IC50)
Method: Antioxidant capacity of samples was determined by ORAC (oxygen radical absorption capacity) and CAA (cellular antioxidant activity) assays. ORAC assay was realized by the previously described protocol. Briefly, 50 µL of the fluorescein solution (1.6 µg/mL in phosphate-buffered saline (PBS), pH 7.4) was added by a dispenser (MultiFlo Microplate Dispenser, BioTek Instrument, Winooski, VT, USA) into each well of a 96-well plate. Subsequently, 2 µL of tested compound in the concentration range 1.25–20 µM and 23 µL of PBS were added to the wells. The plate was incubated for 15 min at 37 °C and then 25 µL of AAPH (60 mg/mL) was added to each well. AAPH was replaced with PBS for the negative control. Immediately, the fluorescence was recorded by the microplate reader (SpectraMax i3 Multi-Mode Detection Platform, Molecular Devices, San Jose, CA, USA) for 2 h in 5 min steps (excitation/emission 485/535 nm).

ABCA1 = ABCA1 mRNA expression (real-time PCR); type: cell-based, human; conditions: A2780/DOX
Method: as §4, §2, §3

ABCD2 = ABCD2 mRNA expression (real-time PCR); type: cell-based, human; conditions: A2780/DOX
Method: as §1, §2, §3

ABCF3 = ABCF3 mRNA expression (real-time PCR); type: cell-based, human; conditions: A2780/DOX
Method: as §1, §2, §3

[2] = 10 µM combined with doxorubicin at IC25, 48 h
[3] = 10 µM, 48 h, without doxorubicin

COc1cc(C2Oc3cc([C@H]4Oc5cc(O)cc(O)c5C(=O)[C@@H]4O)ccc3OC2CO)ccc1O (stereo partly shown) [Silybin AB, silybin]
ABCG4 Expression Difference (ABCG4; [2]): 5.289
ABCG4 Expression Difference (ABCG4; [3]): 1.846
ABCC10 Expression Difference (ABCC10; [2]): 1.855
ABCC10 Expression Difference (ABCC10; [3]): 1.857
IC50 (TNF-α; Mus musculus, RAW264.7, RAW 264.7, 24 h pre-cultivation, then LPS 2 h, read-out: TNF-α, concentration necessary to halve the release (IC50)): 38.7 µM
TNF-α (pg/mL) (TNF-α; compound 12.5 µM): 2497 ± 37 ^b pg/mL
TNF-α (pg/mL) (TNF-α; compound 25 µM): 2425 ± 145 ^c pg/mL
TNF-α (pg/mL) (TNF-α; compound 50 µM): 1177 ± 75 ^d pg/mL
ABCC1 Expression Difference (ABCC1 (MRP1); [2]): 1.640
ABCC1 Expression Difference (ABCC1 (MRP1); [3]): 2.521
ABCD1 Expression Difference (ABCD1): 2.868
IC50 [1]: 7.1 ± 0.6 µM
ABCA1 Expression Difference (ABCA1; [2]): 2.922
ABCA1 Expression Difference (ABCA1; [3]): 2.021
ABCD2 Expression Difference (ABCD2; [2]): 0.494
ABCD2 Treated vs. Untreated (ABCD2; [2]): DOWN
ABCD2 Expression Difference (ABCD2; [3]): 1.566
ABCF3 Expression Difference (ABCF3; [2]): 1.554
ABCF3 Expression Difference (ABCF3; [3]): 1.440
